From US8278442B2, “Bicyclic aryl and heteroaryl compounds for the treatment of metabolic disorders” (Prosidion Limited, priority 2007, dated 2012) come the findings set out here.

For experiment [1], the target named is T1, mu-opioid receptor (Homo sapiens, UniProt P35372). The experiment in a line: Competition binding assay (3H-DAMGO). Particulars: mu-opioid receptor expressing membranes, 0.5 nM 3H-DAMGO. On the procedure: Competition Binding Assays
Mu-, kappa- or delta-opioid receptor expressing membranes (5-15 μg/well) were suspended in 50 mM Tris buffer pH 7.6 containing 5 mM MgCl2 and were incubated on 96-well plates with test compound or vehicle (1% DMSO) and either 0.5 nM ^3H-DAMGO, 0.8 nM ^3H—U-69,595 or 1.1 nM ^3H-DPDPE respectively in a total volume of 200 μL for 90 min at rt (22° C.). The contents of the wells were filtered and washed 5 times with chilled 50 mM Tris buffer pH 7.6 through H2O pre-soaked GF/B filters using a Perkin Elmer Filtermate. The filters were dried and upon application of scintillant the bound radioactive content for each well determined by scintillation counting in a Wallac TriLux Microbeta scintillation counter. Non-specific binding was determined in the presence of 2 μM Naloxone. IC50 values were determined by plotting log concentration test compound against specific binding and subsequent Ki values calculated.

The target of experiment [2] is T1, mu-opioid receptor. The experiment in a line: GTPγS functional binding assay. Particulars: mu-opioid receptor expressing membranes, agonist DAMGO 10 nM, 35S-GTPγS binding. It counts as biochemical. On the procedure:
GTPγS Functional Binding Assays
Mu-, kappa- or delta-opioid receptor expressing membranes (5-20 μg/well) were suspended in 50 mM HEPES buffer pH 7.6 containing 3 mM MgCl2, 120 mM NaCl, 150 pM GTPγS, 10 μg/mL saponin and 3 μM GDP (μ-opioid receptor assay) or 5 μM GDP (κ- and δ-opioid receptor assay) and were pre-incubated on 96-well plates with test compound or vehicle (1% DMSO) in a total volume of 160 μL for 10 min at rt (22° C.). Specific agonists DAMGO (10 nM final concentration), U-50,488 (30 nM final concentration) or SNC-80 (10 nM final concentration) were added respectively and the plates pre-incubated for a further 15 min at rt (22° C.) ^35S-GTPγS at a final concentration in the assay of 150 pM was then added to provide a total volume per well of 200 μL and the plates incubated for 45 min at 30° C. The contents of the wells were filtered and washed 5 times with chilled 50 mM Tris buffer pH 7.6 through H2O pre-soaked GF/B filters using a Perkin Elmer Filtermate. The filters were dried and upon application of scintillant the bound radioactive content for each well determined by scintillation counting in a Wallac TriLux Microbeta scintillation counter. Non-specific binding was determined in the presence of 10 μM GTPγS. IC50 values were determined by plotting log concentration test compound against percentage increase over non-stimulated ^35S-GTPγS binding.
Background: GTPγS resists hydrolysis and so accumulates on activated G proteins.

T1 sequence (P35372 whole entry, species assumed): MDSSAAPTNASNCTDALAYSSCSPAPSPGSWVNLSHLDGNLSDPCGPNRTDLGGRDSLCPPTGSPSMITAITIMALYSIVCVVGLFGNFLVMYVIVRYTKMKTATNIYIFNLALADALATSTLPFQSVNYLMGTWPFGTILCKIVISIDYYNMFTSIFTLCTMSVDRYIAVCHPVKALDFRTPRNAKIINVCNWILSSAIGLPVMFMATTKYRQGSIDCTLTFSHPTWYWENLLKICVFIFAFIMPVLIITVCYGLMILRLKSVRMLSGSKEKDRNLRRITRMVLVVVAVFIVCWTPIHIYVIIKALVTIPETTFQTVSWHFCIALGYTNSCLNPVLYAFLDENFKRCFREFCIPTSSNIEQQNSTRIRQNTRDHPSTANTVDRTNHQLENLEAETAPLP

At mu-opioid receptor [1], `NC(=O)c1ccc(Oc2ccc(CNC3CCOCC3)c3ccccc23)nc1` [Example 16, 6-{4-[(Tetrahydropyran-4-ylamino)methyl]naphthalen-1-yloxy}nicotinamide] came in with a Ki of less than 100 nM. Also, the IC50 on mu-opioid receptor [2] was less than 100 nM.

In general, Ki refers to the dissociation constant of the complex between target and ligand, obtained from inhibition or displacement. The low end stands for a stronger hold on the target, the high end for a looser hold on the target. By IC50 is commonly meant the concentration needed to halve the response being measured.
